Measurements taken from article PMC6001238, “Iterative Chemical Engineering of Vancomycin Leads to Novel Vancomycin Analogs With a High in Vitro Therapeutic Index” (Frontiers in Microbiology, 2018).
In brackets after ≈: the same amount, converted by molar mass.

Columns and labels:
VRE 39 = assay: Resistance development, serial exposure to subinhibitory doses, 20 cycles; type: cell-based, Enterococcus faecalis; conditions: subinhibitory doses (MIC/2)
Description: To monitor resistance development upon exposure to subinhibitory doses, the initial MIC of Vanc-39, Vanc-42 and daptomycin was determined against VRE 39. A new MIC assay was prepared using 1,000-fold diluted cells grown at MIC/2 (occasionally MIC/4 if growth in MIC/2 was too limited). This was repeated for 20 cycles and changes in MIC were monitored.

MRSA = assay: Time-kill curves, MRSA at 4x MIC; type: cell-based, Staphylococcus aureus; conditions: 1-24 h
Description: Time-kill curves were determined based on the CLSI guidelines ([Clinical and Laboratory Standards Institute [CLSI], 1999]). Single colonies grown overnight at 37°C were resuspended in Ca^2+-adjusted (0.05 mg/mL) Mueller Hinton broth up to an optical density (625 nm) of 0.08–00.10 (corresponding to the 0.5 McFarland standard), followed by a 10-fold dilution in the same broth. Subsequently, 0.2 mL inoculum was added to 1.7 mL Ca^2+-adjusted (0.05 mg/mL) Mueller Hinton broth, followed by addition of the antibacterial compound (0.1 mL). The final concentration of the antibacterial compound corresponded to the 4x MIC value for that compound. For the antibiotic-free control, the compound was replaced by an equal volume of ultrapure water. The final inoculum concentration was approximately 10^6 CFU/mL. The cultures were continuously shaken at 37°C. After 1, 2, 4, 6, 8, and 24 h, a 0.1 mL aliquot was removed, serially diluted in cold 0.9% w/v NaCl and plated on BHI (VRE) and LB (MRSA) agar plates. Plates were incubated overnight at 37°C and colonies were counted.

VRE39 = assay: MIC in the absence and presence of 10 µM vancomycin (vanA induction); type: cell-based, Enterococcus faecalis
Description: The minimum inhibitory concentration (MIC) was determined using the broth microdilution method according to the antimicrobial susceptibility testing standards of the clinical and laboratory standards institute ([Clinical and Laboratory Standards Institute [CLSI], 2012]). Ultrapure water and non-inoculated broth were used as controls. In one case, a final concentration of 10 μM vancomycin was included with the vancomycin analog or control antibiotic.

E. coli XL-1 blue MRF' = assay: MIC, broth microdilution, E. coli XL-1 blue MRF'; type: cell-based, Escherichia coli
Method in brief: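 Susceptibility was scored by broth microdilution (CLSI). In one instance each vancomycin analog or control antibiotic was tested in the presence of vancomycin, 10 μM final, and ultrapure water plus non-inoculated broth were included as controls.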

[1] = test system: lipid II with terminal D-Ala-D-Lac; design: method as in Arthur and Courvalin, 1993; Walsh et al., 1996; conditions: D-Ala-D-Lac versus D-Ala-D-Ala termini ref Arthur and Courvalin, 1993; Walsh et al., 1996; cited from earlier work
B. subtilis PSB3 = assay: MIC, broth microdilution, B. subtilis PSB3; type: cell-based, Bacillus subtilis
Method in brief: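 Controls (ultrapure water; broth not inoculated) were included throughout CLSI-compliant broth microdilution. One condition supplemented analogue or comparator with 10 μM vancomycin, final level.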

SMILES | change in MIC upon serial exposure (VRE 39) | time-kill curve character (MRSA) | MIC (VRE39; VRE39, 0 µM vancomycin) | MIC (VRE39; VRE39, 10 μM vancomycin added) | other results
CCCCCCCCCC(=O)N[C@@H](Cc1c[nH]c2ccccc12)C(=O)N[C@H](CC(N)=O)C(=O)N[C@@H](CC(=O)O)C(=O)N[C@@H]1C(=O)NCC(=O)N[C@@H](CCCN)C(=O)N[C@@H](CC(=O)O)C(=O)N[C@H](C)C(=O)N[C@@H](CC(=O)O)C(=O)NCC(=O)N[C@H](CO)C(=O)N[C@@H]([C@H](C)CC(=O)O)C(=O)N[C@@H](CC(=O)c2ccccc2N)C(=O)O[C@@H]1C [Daptomycin, reference compound] | eightfold higher concentration | complete elimination after 24 h |  |  | 
CN(C)c1cc(NC(=O)CNC(C)(C)C)c(O)c2c1C[C@H]1C[C@H]3[C@H](N(C)C)C(O)=C(C(N)=O)C(=O)[C@@]3(O)C(O)=C1C2=O [Tigecycline, reference compound] |  | typical bacteriostatic time-kill curve |  |  | 
CNC(CC(C)C)C(=O)NC1C(=O)NC(CC(N)=O)C(=O)NC2C(=O)NC3C(=O)NC(C(=O)NC(C(=O)NCCCNC(=O)c4cc5ccccc5[nH]4)c4cc(O)cc(O)c4-c4cc3ccc4O)C(O)c3ccc(c(Cl)c3)Oc3cc2cc(c3OC2OC(CO)C(O)C(O)C2OC2CC(C)(N)C(O)C(C)O2)Oc2ccc(cc2Cl)C1O (stereo not drawn) [Vanc-24] |  | quickest onset of killing | 3.13 µM | 6.25 µM | 
CCCCc1ccc(NC(=O)CNC(=O)[C@H]2NC(=O)[C@H]3NC(=O)[C@H](NC(=O)[C@@H]4NC(=O)[C@H](CC(N)=O)NC(=O)[C@H](NC(=O)[C@@H](CC(C)C)NC)[C@H](O)c5ccc(c(Cl)c5)Oc5cc4cc(c5O[C@@H]4O[C@H](CO)[C@@H](O)[C@H](O)[C@H]4O[C@H]4C[C@](C)(N)[C@H](O)[C@H](C)O4)Oc4ccc(cc4Cl)[C@H]3O)c3ccc(O)c(c3)-c3c(O)cc(O)cc32)cc1 [Vanc-39] | oscillated between the original value and a twofold increase |  | 1.56 µM | 6.25 µM | 
CN[C@H](CC(C)C)C(=O)N[C@H]1C(=O)N[C@@H](CC(N)=O)C(=O)N[C@H]2C(=O)N[C@H]3C(=O)N[C@H](C(=O)N[C@H](C(=O)NCC(=O)Nc4ccc5c(c4)Cc4ccccc4-5)c4cc(O)cc(O)c4-c4cc3ccc4O)[C@H](O)c3ccc(c(Cl)c3)Oc3cc2cc(c3O[C@@H]2O[C@H](CO)[C@@H](O)[C@H](O)[C@H]2O[C@H]2C[C@](C)(N)[C@H](O)[C@H](C)O2)Oc2ccc(cc2Cl)[C@H]1O [Vanc-42] | oscillated between the original value and a twofold increase |  | 1.56 µM | 1.56 µM | 
CNC(CC(C)C)C(=O)NC1C(=O)NC(CC(N)=O)C(=O)NC2C(=O)NC3C(=O)NC(C(=O)NC(C(=O)NCCCNC(=O)c4ccc5cc(NS(=O)(=O)c6ccc(C(C)C)cc6)ccc5c4)c4cc(O)cc(O)c4-c4cc3ccc4O)C(O)c3ccc(c(Cl)c3)Oc3cc2cc(c3OC2OC(CO)C(O)C(O)C2OC2CC(C)(N)C(O)C(C)O2)Oc2ccc(cc2Cl)C1O (stereo not drawn) [Vanc-66] |  |  | 3.13 µM | 3.13 µM | 
CN[C@H](CC(C)C)C(=O)N[C@H]1C(=O)N[C@@H](CC(N)=O)C(=O)N[C@H]2C(=O)N[C@H]3C(=O)N[C@H](C(=O)N[C@H](C(=O)O)c4cc(O)cc(O)c4-c4cc3ccc4O)[C@H](O)c3ccc(c(Cl)c3)Oc3cc2cc(c3O[C@@H]2O[C@H](CO)[C@@H](O)[C@H](O)[C@H]2O[C@H]2C[C@](C)(N)[C@H](O)[C@H](C)O2)Oc2ccc(cc2Cl)[C@H]1O [Vancomycin] |  |  |  |  | MIC (VRE39; Enterococcus faecalis, VRE39, 0 µM vancomycin): 800 µM; MIC (VRE39; Enterococcus faecalis, VRE39, 10 μM vancomycin added): 400 µM; MICvanc/MICi (E. coli XL-1 blue MRF'; E. coli XL-1 blue MRF', ratio of MIC of vancomycin and MIC of analogue): 1; MIC (E. coli XL-1 blue MRF'; Escherichia coli): 100 µM (≈ 145 µg/mL); reduced affinity for vancomycin [1]: 1000 fold; MIC (B. subtilis PSB3; Bacillus subtilis): 0.39 µM (≈ 0.565 µg/mL); MICvanc/MICi (B. subtilis PSB3; ratio of MIC of vancomycin and MIC of analogue): 1
